Data on eight compounds can be found in patent US5888995A, “Steroid esters” (priority 1991, dated 1999).

Molecules are shown by their SMILES. Like-named read-outs stand apart in the source and are kept apart here.

For data set [1], the system named is Sephadex induced lung edema (left lung lobe). Nature of the data set: Desired local antiinflammatory activity on airway mucosa (left lung lobe), Sephadex induced lung edema model, local instillation. The data set is classed as in vivo, Sprague Dawley rats. Particulars: Rattus norvegicus; in liposomes; instilled into left lung lobe 2 h before Sephadex; dose to reduce the edema by 50%; lungs weighed 20 h after Sephadex; read-out: ED50 (left lung administration) Left lung lobe. Here is the method: (§1) A) Test model for desired local antiinflammatory activity on airway mucosa (left lung lobe).
(§2) Sprague Dawley rats (250 g) were slightly anaesthetized. with Ephrane and the glucocorticosteroid test preparation (in liposomes suspended in saline) in a volume of 0.5 ml/kg was instilled into the left lung lobe only. Two hours later a suspension of Sephadex (5 mg/kg in a volume of 1 ml/kg) was instilled in the trachea well above the bifurcation so that the suspension reached both the left and right lung lobes. Twenty hours later the rats were killed and the left lung lobes dissected out and weighed. Control groups got vehicle instead of glucocorticosteroid preparation and saline instead of Sephadex suspension so that lung weight due to non-drug-treated, Sephadex-induced edema and the normal lung weight could be determined.

In data set [2] the test system is Sephadex induced lung edema (lung). Kind of data set: Unwanted systemic effect by orally absorbed glucocorticosteroid, Sephadex induced lung edema model, oral administration. The format is in vivo, Sprague Dawley rats. Conditions: Rattus norvegicus, 20 h, in liposomes, given orally 2 h before Sephadex, dose to reduce the edema by 50%, read-out: ED50 (p.o. adm.) lung. Here is the method:
(§3) B) Test model for unwanted systemic effect by orally absorbed glucocorticosteroid
(§4) Sprague Dawley rats (250 g) were slightly anaesthetized with Ephrane and the GCS test preparation in a volume of 1.0 ml/kg was given orally. Two hours later a suspension of Sephadex (5 mg/kg in a volume of 1 ml/kg) was instilled in the trachea well above the bifurcation so that the suspension reached both the left and the right lung lobes. Twenty hours later, the rats were killed and the lung lobes were weighed. Control groups got vehicle instead of glucocorticosteroid preparation and saline instead of Sephadex suspension so that lung weight due to non-drug-treated, Sephadex-induced edema and the normal lung weight could be determined.

In data set [3] the test system is Sephadex induced lung edema. Kind of data set: Lung selectivity: ratio of oral and local ED50 in the Sephadex induced lung edema model. The format is in vivo, Sprague Dawley rats. Conditions: in liposomes; ED50 p.o. / ED50 left lung lobe.
Source text: A considerable fraction of inhaled GCS is deposited in the pharynx and is subsequently swallowed, ending up in the gut. This fraction contributes to the unwanted side effects of the steroid since it is acting outside the area (the lung) intended for treatment. Therefore, it is favourable to use a GCS with high local anti-inflammatory activity in the lung but low GCS-induced effects after oral administration. Studies were therefore done in order to determine the GCS-induced effects after local application in the lung as well as after peroral administration, and the differentiation between glucocorticosteroid actions in the treated lung region and outside this area was tested in the following way.
as §1, §2, §3, §4

For data set [4] the following is noted: cited from earlier work; for unwanted GCS actions within the general circulation: highest of the recommended doses for inhalation.

Take `CCCCCCCCCCCCCCCC(=O)OCC(=O)[C@@]12OC(CCC)O[C@@H]1C[C@H]1[C@@H]3CCC4=CC(=O)C=C[C@]4(C)[C@H]3[C@@H](O)C[C@@]12C` (stereo partly drawn) [Budesonide-21-palmitate (RS), Budesonide-21-palmitate]: the results for the ED50 in data set [1] and in data set [2] were 0.023 µmol/kg and 1.52 µmol/kg, respectively. Moreover, in data set [3], the “Ratio oral/local administration (ED50)” value stood at 66.
Regarding `CCCCCCCCCCCCCCCC(=O)OCC(=O)[C@@]12O[C@H](CCC)O[C@@H]1C[C@H]1[C@@H]3C[C@H](F)C4=CC(=O)CC[C@]4(C)[C@@]3(F)[C@@H](O)C[C@@]12C` [Example 1, (22R)-16α,17α-Butylidenedioxy-6α,9α-difluoro-11β-hydroxy-21-palmitoyloxypregn-4-ene-3,20-dione], the values for the ED50 in data set [1] and in data set [2] were 0.0015 µmol/kg and 0.839 µmol/kg, respectively. For the same compound, the “Ratio oral/local administration (ED50)” value in data set [3] worked out at 559.
Turning to `CCCCCCCCCCCCCCCC(=O)OCC(=O)[C@@]12O[C@@H](CCC)O[C@@H]1C[C@H]1[C@@H]3C[C@H](F)C4=CC(=O)CC[C@]4(C)[C@@]3(F)[C@@H](O)C[C@@]12C` [Example 3, (22S)-16α,17α-Butylidenedioxy-6α,9α-difluoro-11β-hydroxy-21-palmitoyloxypregn-4-ene-3,20-dione], the figures for the ED50 in data set [1] and in data set [2] were 0.0035 µmol/kg and 0.554 µmol/kg, respectively. The “Ratio oral/local administration (ED50)” value in data set [3] was 158.
In the case of `CCCCCCCCCCCCCCCC(=O)OCC(=O)[C@@]12O[C@H](CCC)O[C@@H]1C[C@H]1[C@@H]3C[C@H](F)C4=CC(=O)C=C[C@]4(C)[C@@]3(F)[C@@H](O)C[C@@]12C` [Example 6, (22R)-16α,17α-Butylidenedioxy-6α,9α-difluoro-11β-hydroxy-21-palmitoyloxypregna-1,4-diene-3,20-dione], in data set [1], the ED50 came out at 0.0018 µmol/kg.
With `CCCCCCCCCCCCCCCC(=O)OCC(=O)[C@@]12O[C@@H](CCC)O[C@@H]1C[C@H]1[C@@H]3C[C@H](F)C4=CC(=O)C=C[C@]4(C)[C@@]3(F)[C@@H](O)C[C@@]12C` [Example 7, (22S)-16α,17α-Butylidenedioxy-6α,9α-difluoro-11β-hydroxy-21-palmitoyloxypregna-1,4-diene-3,20-dione], the figures for the ED50 in data set [1] and in data set [2] were 0.0023 µmol/kg and 0.568 µmol/kg, respectively. In addition, the “Ratio oral/local administration (ED50)” value in data set [3] came out at 247.
`CCCCCCCCCCCCCCCC(=O)OCC(=O)[C@@]1(O)[C@H](C)C[C@H]2[C@@H]3C[C@H](F)C4=CC(=O)C=C[C@]4(C)[C@@]3(F)[C@@H](O)C[C@@]21C` [Flumethasone-21-palmitate]: the values for the ED50 in data set [1] and in data set [2] were 0.0022 µmol/kg and 0.018 µmol/kg, respectively. Also, in data set [3], the “Ratio oral/local administration (ED50)” value is given as 8.
For the compound `CCC(=O)OCC(=O)[C@@]1(OC(=O)CC)[C@@H](C)C[C@H]2[C@@H]3CCC4=CC(=O)C=C[C@]4(C)[C@@]3(Cl)[C@@H](O)C[C@@]21C` [beclomethasone 17α,21-dipropionate], in data set [4], the “unwanted GCS actions within the general circulation” value is given as “unwanted GCS actions within the general circulation have been reported”. The safety margin result in data set [4] (in vivo) is listed as “rather narrow safety margin”.
As to `CCCC1O[C@@H]2C[C@H]3[C@@H]4CCC5=CC(=O)C=C[C@]5(C)[C@H]4[C@@H](O)C[C@]3(C)[C@]2(C(=O)CO)O1` (some centres unmarked) [budesonide], in data set [4], the “unwanted GCS actions within the general circulation” value was “unwanted GCS actions within the general circulation have been reported”. Besides, the safety margin result in data set [4] (inhaled, clinical use) is given as “rather narrow safety margin”.
